Laboratory results from patent publication US20210403420A1, “BENZOATE COMPOUND” (SCOHIA PHARMA, INC., priority 2018, published 2021).
Where a name gives a salt, the structure may show the parent alone.

Columns and labels:
[1] = molecular target: T1, Human recombinant enteropeptidase (Homo sapiens, UniProt P98073); test: Human enteropeptidase inhibitory activity; type: biochemical; conditions: 1 μM test compound; fluorescence intensity at 2 hours after start of reaction; read-out: Inhibition rate at 1 μM
T1 construct: purchased ITSI-Biosciences LLC #REN-260
T1 sequence (P98073 whole entry): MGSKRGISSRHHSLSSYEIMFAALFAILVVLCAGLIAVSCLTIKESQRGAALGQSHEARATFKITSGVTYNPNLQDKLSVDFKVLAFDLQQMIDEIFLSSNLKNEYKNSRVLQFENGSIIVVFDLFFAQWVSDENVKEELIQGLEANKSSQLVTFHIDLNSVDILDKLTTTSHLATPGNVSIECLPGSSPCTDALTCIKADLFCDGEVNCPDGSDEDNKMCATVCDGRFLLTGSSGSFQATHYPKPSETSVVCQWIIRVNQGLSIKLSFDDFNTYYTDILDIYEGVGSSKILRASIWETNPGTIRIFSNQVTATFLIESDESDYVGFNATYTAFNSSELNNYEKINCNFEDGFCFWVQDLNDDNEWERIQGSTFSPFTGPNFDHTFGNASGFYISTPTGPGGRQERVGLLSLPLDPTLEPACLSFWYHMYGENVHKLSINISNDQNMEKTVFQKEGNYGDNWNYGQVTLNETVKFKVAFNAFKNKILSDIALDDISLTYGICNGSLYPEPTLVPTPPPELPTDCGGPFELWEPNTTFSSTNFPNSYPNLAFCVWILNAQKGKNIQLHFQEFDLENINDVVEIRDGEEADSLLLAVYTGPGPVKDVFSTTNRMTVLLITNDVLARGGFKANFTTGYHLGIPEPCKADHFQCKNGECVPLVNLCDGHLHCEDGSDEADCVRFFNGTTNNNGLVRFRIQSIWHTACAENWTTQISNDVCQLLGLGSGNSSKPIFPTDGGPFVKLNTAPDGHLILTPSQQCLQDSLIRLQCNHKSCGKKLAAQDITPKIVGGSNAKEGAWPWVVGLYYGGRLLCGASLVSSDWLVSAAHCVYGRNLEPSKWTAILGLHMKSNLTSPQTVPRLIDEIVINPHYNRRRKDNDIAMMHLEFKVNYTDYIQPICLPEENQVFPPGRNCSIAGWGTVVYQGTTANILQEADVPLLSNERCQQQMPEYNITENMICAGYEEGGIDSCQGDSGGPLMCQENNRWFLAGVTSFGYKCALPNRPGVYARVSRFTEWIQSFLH
Procedure: Test Example 1: Human Enteropeptidase Inhibitory Activity
Human recombinant enteropeptidase (#REN-260, ITSI-Biosciences LLC) was diluted with an assay buffer (50 mM Tricine, pH 8.0, 0.01 (w/v) %, Tween 20, 10 mM CaCl2)) to prepare a 24 mU/mL enzyme solution. Subsequently, 5FAM-Abu-Gly-Asp-Asp-Asp-Lys-Ile-Val-Gly-Gly-Lys(CPQ2)-Lys-Lys-NH2 (CPC Scientific Inc.) was diluted with the assay buffer to prepare a 2.1 μM substrate solution. A test compound is dissolved in DMSO into a 10 mM solution, and the solution was diluted with the assay buffer to give a compound solution. To a 384-well black plate (#784076, Greiner Bio-One), 5 μL of the compound solution and 5 μL of the substrate solution were added and mixed, and 5 μL of the enzyme solution was then added to the mixture, followed by mixing to start the reaction. The fluorescence intensity was measured with a fluorescence plate reader EnVision (The Perkin-Elmer Corp.) at an excitation wavelength of 485 nm and a fluorescence wavelength of 535 nm. The same reaction as above was performed without the addition of the test compound (test compound non-addition group). Furthermore, the same reaction as above was performed without the addition of the test compound and the enzyme (control group). The inhibition rate was calculated using the fluorescence intensity at 2 hours after the start of the reaction by the following expression:
Inhibition rate (%)=(1−((fluorescence intensity of test compound addition group)−(fluorescence intensity of control group))/((fluorescence intensity of test compound non-addition group)−(fluorescence intensity of control group)))×100

[2] = test system: High fat diet-fed mice; test: Fecal protein concentration-increasing test using high fat diet-fed mouse; type: in vivo; conditions: 30 mg/kg oral, feces of first day of administration; for response vs control in vivo at 30 mg/kg: Mus musculus, po, 24 h, vehicle group = 100, read-out: Fecal protein concentration-increasing rate
From the text: Test Example 2: Fecal Protein Concentration-Increasing Test Using High Fat Diet-Fed Mouse
High fat diet-fed mice (D12451 diet, male, 10- to 50-week old) were orally administered with a 0.5% methyl cellulose suspension containing a test compound (compound administration group, five mice per group) or a 0.5% methyl cellulose suspension (compound non-administration group (vehicle group), five mice per group), and whole feces were collected on the first day of administration. Dried feces were dissolved in 0.5 N NaOH, followed by centrifugation at 12,000 rpm. The protein concentration in the supernatant was then quantitatively measured (Lowry method), and the amount of protein contained in 1 g of feces was calculated as the fecal protein concentration (mg/g feces). The fecal protein concentration-increasing rate was calculated by the following expression.
Fecal protein concentration-increasing rate (%)=Fecal protein concentration of compound administration group/Fecal protein concentration of vehicle group×100

[3] = test system: Diet-induced obesity (DIO) mice; test: Anti-obesity effect test using DIO mouse; type: in vivo; conditions: for Body weight (g) At start of administration: average at start of administration; for Body weight (g) After 7-day administration: average; for Fecal protein concentration-increasing rate (%): feces of eighth day, vehicle = 100
Procedure: Test Example 3: Anti-Obesity Effect Test Using DIO Mouse
Diet-induced obesity (DIO) mice (D12451 diet, male, 26-week old) were orally administered with a 0.5% methyl cellulose suspension containing a test compound (30 mg/kg) (compound administration group, five mice per group) or a 0.5% methyl cellulose suspension (compound non-administration group (vehicle), five mice per group) once a day for seven days, and whole feces were collected on the eighth day of administration. Dried feces were dissolved in 0.5 N NaOH, followed by centrifugation at 12,000 rpm. The protein concentration in the supernatant was then quantitatively measured (Lowry method), and the amount of protein contained in 1 g of feces was calculated as the fecal protein concentration (mg/g feces). The fecal protein concentration-increasing rate was calculated by the following expression.
Fecal protein concentration-increasing rate (%)=Fecal protein concentration of compound administration group/Fecal protein concentration of vehicle group X 100
The fecal protein concentration-increasing rate and the averages of the body weights at the start of administration and after administration for seven days are shown in Table 6.
Also, DIO mice (D12451 diet, male, 59-week old) were orally administered with a 0.5% methyl cellulose suspension containing a test compound (20 mg/kg) (compound administration group, five mice per group) or a 0.5% methyl cellulose suspension (compound non-administration group (vehicle), five mice per group) once a day for seven days, and whole feces were collected on the eighth day of administration. The fecal protein concentration (mg/g feces) was calculated by the method described above. The fecal protein concentration-increasing rate and the averages of the body weights at the start of administration and after administration for seven days are shown in Table 7.

[4] = DIO mice 26-week old, 30 mg/kg oral once a day for seven days
[5] = DIO mice 59-week old, 20 mg/kg oral once a day for seven days

Row | SMILES | inhibition at 1 µM [1] | response vs control in vivo at 30 mg/kg [2] | also measured
1 | N=C(N)Nc1ccc(C(=O)Oc2ccc(CCC(=O)N[C@@H](CC(=O)O)C(=O)O)c(OCCOCCOCCOc3cc(OC(=O)c4ccc(NC(=N)N)cc4)ccc3CCC(=O)N[C@@H](CC(=O)O)C(=O)O)c2)cc1 [Example 4, (2S)-2-[3-[2-[2-[2-[2-[2-[3-[[(1S)-1,2-Dicarboxyethyl]amino]-3-oxopropyl]-5-(4-guanidinobenzoyl)oxyphenoxy]ethoxy]ethoxy]ethoxy]-4-(4-guanidinobenzoyl)oxyphenyl]propanoylamino]butanedioic acid ditrifluoroacetate] |  |  | Fecal protein concentration-increasing rate ([2]; vehicle group = 100, ditrifluoroacetate): 181%
2 | N=C(N)Nc1ccc(C(=O)Oc2cc(OCCOCCOCCOc3cc(OC(=O)c4ccc(NC(=N)N)cc4)cc(C(=O)N(CC(=O)O)CC(=O)O)c3)cc(C(=O)N(CC(=O)O)CC(=O)O)c2)cc1 [Example 5, 2-[[3-[2-[2-[2-[3-[Bis(carboxymethyl)carbamoyl]-5-(4-guanidinobenzoyl)oxyphenoxy]ethoxy]ethoxy]ethoxy]-5-(4-guanidinobenzoyl)oxybenzoyl]-(carboxymethyl)amino]acetic acid ditrifluoroacetate] | 99% | 158% | 
3 | N=C(N)c1ccc(OC(=O)c2cc(OCCOCCOCCOc3cc(C(=O)N[C@@H](CC(=O)O)C(=O)O)cc(C(=O)Oc4ccc(C(=N)N)cc4)c3)cc(C(=O)N[C@@H](CC(=O)O)C(=O)O)c2)cc1 [Example 7, (2S)-2-[[3-(4-Carbamimidoylphenoxy)carbonyl-5-[2-[2-[2-[3-(4-carbamimidoylphenoxy)carbonyl-5-[[(1S)-1,2-dicarboxyethyl]carbamoyl]phenoxy]ethoxy]ethoxy]ethoxy]benzoyl]amino]butanedioic acid ditrifluoroacetate] | 100% | 115% | 
4 | N=C(N)Nc1ccc(C(=O)Oc2cc(OCCOc3cc(OC(=O)c4ccc(NC(=N)N)cc4)cc(C(=O)N[C@@H](CC(=O)O)C(=O)O)c3)cc(C(=O)N[C@@H](CC(=O)O)C(=O)O)c2)cc1 [Example 9, (2S)-2-[[3-[2-[3-[[(1S)-1,2-Dicarboxyethyl]carbamoyl]-5-(4-guanidinobenzoyl)oxyphenoxy]ethoxy]-5-(4-guanidinobenzoyl)oxybenzoyl]amino]butanedioic acid] | 100% | 195% | 
5 | N=C(N)Nc1ccc(C(=O)Oc2cc(OCCOCCOc3cc(OC(=O)c4ccc(NC(=N)N)cc4)cc(C(=O)N[C@@H](CC(=O)O)C(=O)O)c3)cc(C(=O)N[C@@H](CC(=O)O)C(=O)O)c2)cc1 [Example 17, (2S)-2-[[3-[2-[2-[3-[[(1S)-1,2-Dicarboxyethyl]carbamoyl]-5-(4-guanidinobenzoyl)oxyphenoxy]ethoxy]ethoxy]-5-(4-guanidinobenzoyl)oxybenzoyl]amino]butanedioic acid dihydrochloride] |  |  | Body weight (g) At start of administration ([3]; DIO mice 26-week old, 30 mg/kg group): 45.6 g; Body weight (g) After 7-day administration [3, 4]: 44.3 g; Fecal protein concentration-increasing rate (%) [3, 4]: 252%
6 | N=C(N)Nc1ccc(C(=O)Oc2ccc(C(=O)N[C@H](CC(=O)O)C(=O)O)c(OCCOc3cc(OC(=O)c4ccc(NC(=N)N)cc4)ccc3C(=O)N[C@H](CC(=O)O)C(=O)O)c2)cc1 [Example 22, (2R)-2-[[2-[2-[2-[[(1R)-1,2-Dicarboxyethyl]carbamoyl]-5-(4-guanidinobenzoyl)oxyphenoxy]ethoxy]-4-(4-guanidinobenzoyl)oxybenzoyl]amino]butanedioic acid dihydrochloride] |  |  | Body weight (g) At start of administration ([3]; DIO mice 59-week old, 20 mg/kg group): 56.5 g; Body weight (g) After 7-day administration [3, 5]: 55.1 g; Fecal protein concentration-increasing rate (%) [3, 5]: 221%

Now from value to compound, other results behind:

Row | inhibition at 1 µM [1] | SMILES | response vs control in vivo at 30 mg/kg [2] | also measured
7 | 98% | N=C(N)Nc1ccc(C(=O)Oc2cc(OCCOCCOCCOc3cc(OC(=O)c4ccc(NC(=N)N)cc4)cc(C(=O)N[C@@H](CC(=O)O)C(=O)O)c3)cc(C(=O)N[C@@H](CC(=O)O)C(=O)O)c2)cc1 [Example 1, (2S)-2-[[3-[2-[2-[2-[3-[[(1S)-1,2-Dicarboxyethyl]carbamoyl]-5-(4-guanidinobenzoyl)oxyphenoxy]ethoxy]ethoxy]ethoxy]-5-(4-guanidinobenzoyl)oxybenzoyl]amino]butanedioic acid ditrifluoroacetate] | 159% | 
8 | 98% | N=C(N)Nc1ccc(C(=O)Oc2cc(OCCOCCOCCOCCOCCOc3cc(OC(=O)c4ccc(NC(=N)N)cc4)cc(C(=O)N[C@@H](CC(=O)O)C(=O)O)c3)cc(C(=O)N[C@@H](CC(=O)O)C(=O)O)c2)cc1 [Example 2, (2S)-2-[[3-[2-[2-[2-[2-[2-[3-[[(1S)-1,2-Dicarboxyethyl]carbamoyl]-5-(4-guanidinobenzoyl)oxyphenoxy]ethoxy]ethoxy]ethoxy]ethoxy]ethoxy]-5-(4-guanidinobenzoyl)oxybenzoyl]amino]butanedioic acid] | 142% | 
9 | 98% | N=C(N)Nc1ccc(C(=O)Oc2cc(OCCOCCOCCOCCOCCOCCOCCOc3cc(OC(=O)c4ccc(NC(=N)N)cc4)cc(C(=O)N[C@@H](CC(=O)O)C(=O)O)c3)cc(C(=O)N[C@@H](CC(=O)O)C(=O)O)c2)cc1 [Example 3, (2S)-2-[[3-[2-[2-[2-[2-[2-[2-[2-[3-[[(1S)-1,2-Dicarboxyethyl]carbamoyl]-5-(4-guanidinobenzoyl)oxyphenoxy]ethoxy]ethoxy]ethoxy]ethoxy]ethoxy]ethoxy]ethoxy]-5-(4-guanidinobenzoyl)oxybenzoyl]amino]butanedioic acid] | 152% | 
10 | 100% | N=C(N)Nc1ccc(C(=O)Oc2cc(OCCOCCOCCOc3cc(OC(=O)c4ccc(NC(=N)N)cc4)cc(C(=O)N[C@H](CC(=O)O)C(=O)O)c3)cc(C(=O)N[C@H](CC(=O)O)C(=O)O)c2)cc1 [Example 6, (2R)-2-[[3-[2-[2-[2-[3-[[(1R)-1,2-Dicarboxyethyl]carbamoyl]-5-(4-guanidinobenzoyl)oxyphenoxy]ethoxy]ethoxy]ethoxy]-5-(4-guanidinobenzoyl)oxybenzoyl]amino]butanedioic acid ditrifluoroacetate] | 203% | 
11 | 100% | N=C(N)Nc1ccc(C(=O)Oc2cc(OCCOCCOc3cc(OC(=O)c4ccc(NC(=N)N)cc4)cc(C(=O)N[C@@H](CC(=O)O)C(=O)O)c3)cc(C(=O)N[C@@H](CC(=O)O)C(=O)O)c2)cc1 [Example 8, (2S)-2-[[3-[2-[2-[3-[[(1S)-1,2-Dicarboxyethyl]carbamoyl]-5-(4-guanidinobenzoyl)oxyphenoxy]ethoxy]ethoxy]-5-(4-guanidinobenzoyl)oxybenzoyl]amino]butanedioic acid ditrifluoroacetate] | 210% | 
